Results reported in paper PMC5823789 (Journal of medicinal chemistry, 2018).
“Also recorded” adds a separate entry of the source. One block for each molecule: values may come before it.

Assays:
hNNMT [1] = molecular target: T1, hNNMT (Homo sapiens, UniProt P40261); assay: SAHH-coupled fluorescent assay of NNMT methyltransferase activity; format: biochemical
T1 sequence (P40261 1-264): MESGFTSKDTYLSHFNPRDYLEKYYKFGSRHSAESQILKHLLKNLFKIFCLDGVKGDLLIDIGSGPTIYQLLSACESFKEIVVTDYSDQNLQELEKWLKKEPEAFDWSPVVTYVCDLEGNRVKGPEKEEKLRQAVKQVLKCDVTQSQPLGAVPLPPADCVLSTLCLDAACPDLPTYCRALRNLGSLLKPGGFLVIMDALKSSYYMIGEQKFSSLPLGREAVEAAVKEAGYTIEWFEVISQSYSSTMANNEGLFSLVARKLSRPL

hNNMT [2] = molecular target: T1, hNNMT; assay: Isothermal titration calorimetry; format: binding
DOT1L = DOT1L (Homo sapiens, UniProt Q8TEK3); assay: Selectivity assay, filter-based 3H-SAM methyltransferase assay; format: biochemical
PRMT7 = molecular target: T2, PRMT7 (Homo sapiens, UniProt Q9NVM4); assay: Selectivity assay, scintillation proximity assay; format: biochemical
T2 sequence (Q9NVM4 1-692): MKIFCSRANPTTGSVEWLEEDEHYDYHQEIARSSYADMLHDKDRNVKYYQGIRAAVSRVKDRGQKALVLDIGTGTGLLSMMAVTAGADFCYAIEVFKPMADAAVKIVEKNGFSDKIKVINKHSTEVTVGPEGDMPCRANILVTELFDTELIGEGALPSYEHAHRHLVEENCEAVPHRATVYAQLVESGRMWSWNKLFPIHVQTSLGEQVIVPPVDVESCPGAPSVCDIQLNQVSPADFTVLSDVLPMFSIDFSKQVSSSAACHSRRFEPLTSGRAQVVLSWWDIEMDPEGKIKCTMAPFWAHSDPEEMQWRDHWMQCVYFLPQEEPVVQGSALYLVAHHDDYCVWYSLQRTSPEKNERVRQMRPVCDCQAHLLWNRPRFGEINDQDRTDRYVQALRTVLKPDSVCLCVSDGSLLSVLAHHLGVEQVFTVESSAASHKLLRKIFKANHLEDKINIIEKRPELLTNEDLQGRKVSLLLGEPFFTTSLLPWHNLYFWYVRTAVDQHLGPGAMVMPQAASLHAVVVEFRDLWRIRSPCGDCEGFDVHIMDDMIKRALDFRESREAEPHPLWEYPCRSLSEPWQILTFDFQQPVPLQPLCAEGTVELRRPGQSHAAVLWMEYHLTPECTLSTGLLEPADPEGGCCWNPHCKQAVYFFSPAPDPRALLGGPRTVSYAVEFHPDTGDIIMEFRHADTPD

BCDIN3D = molecular target: T3, BCDIN3D (Homo sapiens, UniProt Q7Z5W3); assay: Selectivity assay, scintillation proximity assay; format: biochemical
T3 sequence (Q7Z5W3 1-292): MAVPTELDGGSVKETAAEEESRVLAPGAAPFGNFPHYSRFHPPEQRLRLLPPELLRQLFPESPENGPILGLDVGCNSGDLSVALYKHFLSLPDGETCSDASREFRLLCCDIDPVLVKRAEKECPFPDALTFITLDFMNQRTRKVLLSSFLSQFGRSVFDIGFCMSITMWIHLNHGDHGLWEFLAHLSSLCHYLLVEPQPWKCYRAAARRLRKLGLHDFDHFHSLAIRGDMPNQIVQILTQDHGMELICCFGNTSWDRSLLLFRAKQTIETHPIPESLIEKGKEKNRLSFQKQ

SMYD2 = SMYD2 (Homo sapiens, UniProt Q9NRG4); assay: Selectivity assay, scintillation proximity assay; format: biochemical
[3] = substrate: NC(=O)c1cccnc1; assay: purified protein, by the assay type; settings: other: SAHH-coupled assay; kcat 4.1 ± 0.2 min^-1; pH 7.5

DOT1L, sequence (Q8TEK3 whole entry, species assumed): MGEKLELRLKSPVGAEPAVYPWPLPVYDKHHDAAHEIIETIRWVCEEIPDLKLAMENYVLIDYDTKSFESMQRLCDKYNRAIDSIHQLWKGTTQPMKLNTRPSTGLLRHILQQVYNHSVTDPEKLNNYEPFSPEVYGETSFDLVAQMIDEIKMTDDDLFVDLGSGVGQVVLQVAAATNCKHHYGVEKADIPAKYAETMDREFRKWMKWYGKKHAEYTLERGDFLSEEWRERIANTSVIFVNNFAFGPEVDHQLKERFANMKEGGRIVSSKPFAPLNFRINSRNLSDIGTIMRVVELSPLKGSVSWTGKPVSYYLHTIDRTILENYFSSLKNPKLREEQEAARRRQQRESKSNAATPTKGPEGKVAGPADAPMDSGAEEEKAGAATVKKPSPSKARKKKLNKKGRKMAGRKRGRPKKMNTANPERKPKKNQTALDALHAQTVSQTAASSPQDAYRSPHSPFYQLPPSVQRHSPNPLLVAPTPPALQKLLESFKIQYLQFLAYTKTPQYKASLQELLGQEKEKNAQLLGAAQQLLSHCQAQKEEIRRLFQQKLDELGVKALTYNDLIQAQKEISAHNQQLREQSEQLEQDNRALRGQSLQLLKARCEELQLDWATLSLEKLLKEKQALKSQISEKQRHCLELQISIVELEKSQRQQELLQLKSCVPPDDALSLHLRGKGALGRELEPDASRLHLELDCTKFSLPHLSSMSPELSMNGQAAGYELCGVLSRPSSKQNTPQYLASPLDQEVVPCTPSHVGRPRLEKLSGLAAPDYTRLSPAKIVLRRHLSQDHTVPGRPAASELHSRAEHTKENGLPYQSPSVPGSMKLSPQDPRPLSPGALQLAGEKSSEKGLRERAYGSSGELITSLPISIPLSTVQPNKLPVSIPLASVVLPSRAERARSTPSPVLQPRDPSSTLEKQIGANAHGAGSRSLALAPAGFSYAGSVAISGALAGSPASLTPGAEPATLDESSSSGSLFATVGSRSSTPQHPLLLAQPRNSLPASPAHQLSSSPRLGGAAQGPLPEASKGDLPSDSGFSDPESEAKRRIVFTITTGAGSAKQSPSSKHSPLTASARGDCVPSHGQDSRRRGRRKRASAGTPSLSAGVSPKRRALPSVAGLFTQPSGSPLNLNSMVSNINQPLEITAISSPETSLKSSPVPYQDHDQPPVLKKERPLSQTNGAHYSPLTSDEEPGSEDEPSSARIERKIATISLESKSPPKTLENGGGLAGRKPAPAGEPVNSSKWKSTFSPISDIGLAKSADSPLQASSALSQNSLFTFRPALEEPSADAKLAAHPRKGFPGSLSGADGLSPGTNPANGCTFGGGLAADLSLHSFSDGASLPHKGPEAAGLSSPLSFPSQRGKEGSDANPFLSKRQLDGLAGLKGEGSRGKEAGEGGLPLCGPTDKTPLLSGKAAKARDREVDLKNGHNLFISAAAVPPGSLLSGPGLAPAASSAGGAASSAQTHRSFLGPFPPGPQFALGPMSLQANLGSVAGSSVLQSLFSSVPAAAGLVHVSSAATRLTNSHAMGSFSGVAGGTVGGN
SMYD2, sequence (Q9NRG4 whole entry, species assumed): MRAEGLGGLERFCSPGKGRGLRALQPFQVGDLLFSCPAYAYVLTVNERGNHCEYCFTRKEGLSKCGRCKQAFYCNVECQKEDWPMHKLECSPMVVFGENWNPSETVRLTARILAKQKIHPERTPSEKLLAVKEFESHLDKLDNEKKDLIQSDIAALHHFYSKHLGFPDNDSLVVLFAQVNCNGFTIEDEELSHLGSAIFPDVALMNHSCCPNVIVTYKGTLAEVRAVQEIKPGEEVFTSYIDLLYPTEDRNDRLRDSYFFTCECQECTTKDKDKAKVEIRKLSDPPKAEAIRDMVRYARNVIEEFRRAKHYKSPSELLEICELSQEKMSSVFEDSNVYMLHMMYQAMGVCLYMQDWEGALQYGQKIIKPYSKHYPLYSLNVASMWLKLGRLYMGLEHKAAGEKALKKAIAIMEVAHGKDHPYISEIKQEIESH

Molecule: C[S+](CC[C@H](N)C(=O)O)C[C@H]1O[C@@H](n2cnc3c(N)ncnc32)[C@H](O)[C@@H]1O (stereo partly drawn) [SAM, S-5′-adenosyl-L-methionine, reference compound]
Km (hNNMT [1]; read-out: Km for NNMT): 24 ± 6.8 µM | Kd (hNNMT [2]; read-out: Kd for binding to hNNMT (ITC), 25 °C, 50 mM Tris pH 8.0, 100 mM NaCl): 56.4 ± 9.5 µM

Mechanism of inhibition with respect to substrate nicotinamide (hNNMT [1]; 250 μM SAM, nicotinamide varied 12.5 to 200 μM, Lineweaver-Burk): noncompetitive inhibition | Hill slope, DOT1L (DOT1L): 1.1 | Hill slope, PRMT7 (PRMT7): 1.1 | Hill slope, BCDIN3D (BCDIN3D): 1.3 | Hill slope, SMYD2 (SMYD2): 0.6
Molecule: NC(=O)c1cccc(CCN(CCC[C@H](N)C(=O)O)C[C@H]2O[C@@H](n3cnc4c(N)ncnc43)[C@H](O)[C@@H]2O)c1 [compound 6, (S)-2-Amino-5-((((2R,3S,4R,5R)-5-(6-amino-9H-purin-9-yl)-3,4-di-hydroxytetrahydrofuran-2-yl)methyl)(3-carbamoylphenethyl)-amino)pentanoic acid]
Mechanism of inhibition with respect to cofactor SAM (hNNMT [1]; 200 μM nicotinamide, SAM varied 12.5 to 200 μM, Lineweaver-Burk): SAM competitive; also recorded: competitive inhibition

Binding to hNNMT in ITC in the absence of the cofactor (hNNMT [2]; no cofactor): not observed
Molecule: NC(=O)c1cccnc1 [nicotinamide]

B1: hNNMT (Homo sapiens) (protein)
chain: MESGFTSKDTYLSHFNPRDYLEKYYKFGSRHSAESQILKHLLKNLFKIFCLDGVKGDLLIDIGSGPTIYQLLSACESFKEIVVTDYSDQNLQELEKWLKKEPEAFDWSPVVTYVCDLEGNRVKGPEKEEKLRQAVKQVLKCDVTQSQPLGAVPLPPADCVLSTLCLDAACPDLPTYCRALRNLGSLLKPGGFLVIMDALKSSYYMIGEQKFSSLPLGREAVEAAVKEAGYTIEWFEVISQSYSSTMANNEGLFSLVARKLSRPL
Km [3]: 20 ± 3 µM
